This note sets out measurements from patent US8765773B2, “Substituted hydroxamic acids and uses thereof” (Millennium Pharmaceuticals, Inc., priority 2010, dated 2014).

Molecules are shown by their SMILES.

As a reminder, the inhibition is how much of the control response was suppressed.

One assay concerns the target T1, purified human HDAC6 (Homo sapiens, UniProt Q9UBN7).
T1 construct: purchased BPS Bioscience 5006
T1 sequence (Q9UBN7 1-1215): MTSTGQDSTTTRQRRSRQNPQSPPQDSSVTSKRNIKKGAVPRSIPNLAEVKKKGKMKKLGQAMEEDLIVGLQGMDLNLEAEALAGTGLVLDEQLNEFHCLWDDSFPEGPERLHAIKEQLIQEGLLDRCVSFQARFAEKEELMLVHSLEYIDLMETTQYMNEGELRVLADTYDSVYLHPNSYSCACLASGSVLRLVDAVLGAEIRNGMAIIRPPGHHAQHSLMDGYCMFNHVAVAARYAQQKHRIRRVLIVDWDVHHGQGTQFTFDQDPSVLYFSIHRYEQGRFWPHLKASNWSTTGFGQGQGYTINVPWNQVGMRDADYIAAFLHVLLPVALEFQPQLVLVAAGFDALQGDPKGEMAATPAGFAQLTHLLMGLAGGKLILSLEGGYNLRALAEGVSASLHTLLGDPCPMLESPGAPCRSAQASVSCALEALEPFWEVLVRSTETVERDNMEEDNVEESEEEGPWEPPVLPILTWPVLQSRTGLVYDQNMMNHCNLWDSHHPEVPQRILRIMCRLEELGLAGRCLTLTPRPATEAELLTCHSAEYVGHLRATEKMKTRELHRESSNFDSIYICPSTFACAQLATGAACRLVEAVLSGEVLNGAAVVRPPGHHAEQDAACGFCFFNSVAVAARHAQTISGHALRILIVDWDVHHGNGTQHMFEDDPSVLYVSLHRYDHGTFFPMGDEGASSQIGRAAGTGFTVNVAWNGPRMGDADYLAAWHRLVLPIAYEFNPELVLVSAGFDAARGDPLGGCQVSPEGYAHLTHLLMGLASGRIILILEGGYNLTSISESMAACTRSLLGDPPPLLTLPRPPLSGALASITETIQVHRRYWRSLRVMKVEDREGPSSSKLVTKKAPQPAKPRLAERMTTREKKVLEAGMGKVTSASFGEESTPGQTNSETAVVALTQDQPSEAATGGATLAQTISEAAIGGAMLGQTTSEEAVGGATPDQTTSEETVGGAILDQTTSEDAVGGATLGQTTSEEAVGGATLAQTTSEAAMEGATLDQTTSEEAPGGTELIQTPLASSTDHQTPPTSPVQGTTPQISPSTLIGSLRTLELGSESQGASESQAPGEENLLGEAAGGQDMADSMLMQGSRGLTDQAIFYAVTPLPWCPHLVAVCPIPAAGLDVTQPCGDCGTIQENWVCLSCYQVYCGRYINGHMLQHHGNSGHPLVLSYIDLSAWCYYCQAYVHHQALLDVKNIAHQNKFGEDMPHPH
The assay is described as follows: HDAC6 Enzyme Assay. The following applies: compound concentration 0.37 μM, read-out: Percent Inhibition. The class given is biochemical. The method, then:
To measure the inhibition of HDAC6 activity, purified human HDAC6 (BPS Bioscience; Cat. No. 5006) is incubated with substrate Ac-Arg-Gly-Lys(Ac)-AMC peptide (Bachem Biosciences; Cat. No. I-1925) for 1 hour at 30° C. in the presence of test compounds or vehicle DMSO control. The reaction is stopped with the HDAC inhibitor trichostatin A (Sigma; Cat. No. T8552) and the amount of Arg-Gly-Lys-AMC generated is quantitated by digestion with trypsin (Sigma; Cat. No. T1426) and subsequent measurement of the amount of AMC released using a fluorescent plate reader (Pherastar; BMG Technologies) set at Ex 340 nm and Em 460 nm. Concentration response curves are generated by calculating the fluorescence increase in test compound-treated samples relative to DMSO-treated controls, and percentage inhibition values at a single concentration or enzyme inhibition (IC50) values are determined from those curves. One skilled in the art will appreciate that the values generated either as percentage inhibition at a single concentration or IC50 values are subject to experimental variation.
Consider `CC(=O)Nc1cccc(-c2cccc(Cn3cnc4ccc(C(=O)NO)cc4c3=O)c2)c1` [Compound I-60, 3-{[3′-(acetylamino)biphenyl-3-yl]methyl}-N-hydroxy-4-oxo-3,4-dihydroquinazoline-6-carboxamide], for which the inhibition at 0.37 µM came to 98.4%. Same read-out and setting: to `O=C(NO)c1ccc2ncn(Cc3cccc(-c4ccc(C(F)(F)F)cc4)c3)c(=O)c2c1` [Compound I-69, N-hydroxy-4-oxo-3-{[4′-(trifluoromethyl)biphenyl-3-yl]methyl}-3,4-dihydroquinazoline-6-carboxamide] belongs 82%; to `O=C(NO)c1ccc2ncn(Cc3cccc(-c4cc(C(F)(F)F)cc(C(F)(F)F)c4)c3)c(=O)c2c1` [Compound I-79, 3-{[3′,5′-bis(trifluoromethyl)biphenyl-3-yl]methyl}-N-hydroxy-4-oxo-3,4-dihydroquinazoline-6-carboxamide], 84.1%; to `CC(=O)Nc1ccc(-c2cccc(Cn3cnc4ccc(C(=O)NO)cc4c3=O)c2)cc1` [Compound I-80, 3-{[4′-(acetylamino)biphenyl-3-yl]methyl}-N-hydroxy-4-oxo-3,4-dihydroquinazoline-6-carboxamide], 86.7%. Consider `O=C(NO)c1ccc2ccn(Cc3cccc(-n4cccn4)c3)c(=O)c2c1` [Compound I-82, N-hydroxy-1-oxo-2-[3-(1H-pyrazol-1-yl)benzyl]-1,2-dihydroisoquinoline-7-carboxamide], for which the inhibition at 0.37 µM came out at 100%.

The same assay, now with this note: compound concentration 0.412 μM, read-out: Percent Inhibition.
As for `Cc1ccn(CCn2cnc3ccc(C(=O)NO)cc3c2=O)n1` [Compound I-57, N-hydroxy-3-[2-(3-methyl-1H-pyrazol-1-yl)ethyl]-4-oxo-3,4-dihydroquinazoline-6-carboxamide], the inhibition at 0.412 µM turned out to be 77.4%. On the same count and under the same terms, to `CC(C)(C)OC(=O)N1CCC(CCn2ccc3ccc(C(=O)NO)cc3c2=O)CC1` [Compound I-58, tert-butyl 4-{2-[7-[(hydroxyamino)carbonyl]-1-oxoisoquinolin-2(1H)-yl]ethyl}piperidine-1-carboxylate] belongs 80.4%.

As to `O=C(NO)c1ccc2c(=O)n(CC3CC3)cnc2c1` [Compound I-59, 3-(cyclopropylmethyl)-N-hydroxy-4-oxo-3,4-dihydroquinazoline-7-carboxamide], the inhibition at 0.412 µM worked out at 80.7%. On to `O=C(NO)c1ccc2ccn(Cc3cccc(C(F)(F)F)c3)c(=O)c2c1` [Compound I-61, N-hydroxy-1-oxo-2-[3-(trifluoromethyl)benzyl]-1,2-dihydroisoquinoline-7-carboxamide], for which the inhibition at 0.412 µM was found to be 95.7%. Regarding `O=C(NO)c1ccc2ccn(CCCCOc3ccccc3)c(=O)c2c1` [Compound I-62, N-hydroxy-1-oxo-2-(4-phenoxybutyl)-1,2-dihydroisoquinoline-7-carboxamide], the inhibition at 0.412 µM came out at 98%. Still for that read-out and setting: for `O=C(NO)c1ccc2ncn(Cc3ccccc3Cl)c(=O)c2c1` [Compound I-63, 3-(2-chlorobenzyl)-N-hydroxy-4-oxo-3,4-dihydroquinazoline-6-carboxamide] the value was 93.2%; for `O=C(NO)c1ccc2ccn(C3CCC3)c(=O)c2c1` [Compound I-64, 2-cyclobutyl-N-hydroxy-1-oxo-1,2-dihydroisoquinoline-7-carboxamide], 93.1%; for `O=C(NO)c1ccc2ccn(Cc3c(F)c(F)c(F)c(F)c3F)c(=O)c2c1` [Compound I-65, N-hydroxy-1-oxo-2-(pentafluorobenzyl)-1,2-dihydroisoquinoline-7-carboxamide], 93%. Same read-out and setting: to `O=C(NO)c1ccc2c(=O)[nH]c(COc3ccc4c(c3)OCO4)nc2c1` [Compound I-66, 2-[(1,3-benzodioxol-5-yloxy)methyl]-N-hydroxy-4-oxo-3,4-dihydroquinazoline-7-carboxamide] belongs 89.5%. On to `O=C(NO)c1ccc2ncn(Cc3nc4ccccc4s3)c(=O)c2c1` [Compound I-67, 3-(1,3-benzothiazol-2-ylmethyl)-N-hydroxy-4-oxo-3,4-dihydroquinazoline-6-carboxamide], for which the inhibition at 0.412 µM amounted to 49.2%. The same measure, in the same setting: for `O=C(NO)c1ccc2c(=O)[nH]c(C(=O)NCc3ccc(Cl)cc3)nc2c1` [Compound I-68, N^2-(4-chlorobenzyl)-N^7-hydroxy-4-oxo-3,4-dihydroquinazoline-2,7-dicarboxamide] the value was 61.7%. Same read-out and setting: to `COc1ccc(Nc2nc3ccc(C(=O)NO)cc3c(=O)n2C)cc1` [Compound I-70, N-hydroxy-2-[(4-methoxyphenyl)amino]-3-methyl-4-oxo-3,4-dihydroquinazoline-6-carboxamide] belongs 46.7%.

As to `O=C(NO)c1ccc2ccn(CCOc3ccccc3-n3cccc3)c(=O)c2c1` [Compound I-71, N-hydroxy-1-oxo-2-{2-[2-(1H-pyrrol-1-yl)phenoxy]ethyl}-1,2-dihydroisoquinoline-7-carboxamide], the inhibition at 0.412 µM was 98.5%. For the compound `O=C(NO)c1ccc2ccn(CCCOc3cccc(-c4csnn4)c3)c(=O)c2c1` [Compound I-72, N-hydroxy-1-oxo-2-{3-[3-(1,2,3-thiadiazol-4-yl)phenoxy]propyl}-1,2-dihydroisoquinoline-7-carboxamide], the inhibition at 0.412 µM was determined as 94.1%. Still for that read-out and setting: to `O=C(NO)c1ccc2c(=O)n(Cc3ccc(C(F)(F)F)cc3)c(-c3ccccc3)nc2c1` [Compound I-73, N-hydroxy-4-oxo-2-phenyl-3-[4-(trifluoromethyl)benzyl]-3,4-dihydroquinazoline-7-carboxamide] belongs 87.7%; to `O=C(NO)c1ccc2c(=O)n(CCCc3ccccc3)cnc2c1` [Compound I-74, N-hydroxy-4-oxo-3-(3-phenylpropyl)-3,4-dihydroquinazoline-7-carboxamide], 94.8%. `O=C(NO)c1ccc2ccn(Cc3ccc(C(F)(F)F)cc3)c(=O)c2c1` [Compound I-75, N-hydroxy-1-oxo-2-[4-(trifluoromethyl)benzyl]-1,2-dihydroisoquinoline-7-carboxamide]: the inhibition at 0.412 µM stood at 94.6%. The same measure, in the same setting: to `O=C(NO)c1ccc2ccn(Cc3ccc(F)cc3)c(=O)c2c1` [Compound I-76, 2-(4-fluorobenzyl)-N-hydroxy-1-oxo-1,2-dihydroisoquinoline-7-carboxamide] belongs 93.8%. Turning to `O=C(NO)c1ccc2ccn(CCNCc3cccc(C(F)(F)F)c3)c(=O)c2c1` [Compound I-77, N-hydroxy-1-oxo-2-(2-{[3-(trifluoromethyl)benzyl]amino}ethyl)-1,2-dihydroisoquinoline-7-carboxamide], the inhibition at 0.412 µM amounted to 91%.

As for `O=C(NO)c1ccc2ccn(Cc3ccc(C(F)(F)F)cc3C(F)(F)F)c(=O)c2c1` [Compound I-78, 2-[2,4-bis(trifluoromethyl)benzyl]-N-hydroxy-1-oxo-1,2-dihydroisoquinoline-7-carboxamide], the inhibition at 0.412 µM was determined as 92.9%. In the case of `CC(C)Cc1nc2cc(C(=O)NO)ccc2c(=O)n1Cc1ccc(C(F)(F)F)cc1` [Compound I-81, N-hydroxy-2-isobutyl-4-oxo-3-[4-(trifluoromethyl)benzyl]-3,4-dihydroquinazoline-7-carboxamide], the inhibition at 0.412 µM came to 76.7%.

In the case of `O=C(NO)c1ccc2ccn(Cc3cccc4cccnc34)c(=O)c2c1` [Compound I-83, N-hydroxy-1-oxo-2-(quinolin-8-ylmethyl)-1,2-dihydroisoquinoline-7-carboxamide], the inhibition at 0.412 µM was found to be 89.7%.
